According to the supplement of paper PMC13380429:

Tests used:
Vero E6 [1] = experiment: cell viability relative to DMSO; higher = less toxic; settings: 72 h
Calu-3 [2] = experiment: as above; settings: 72 h
Caco-2 [3] = experiment: as above; settings: 72 h
HepG2 [4] = experiment: as above; settings: 72 h
[5] = tested on: A549-ACE2 infected with SARS-CoV-2; experiment: morphology score (similarity to uninfected cells); higher = more like uninfected cells; settings: 24 h
[6] = tested on: A549-ACE2 infected with SARS-CoV-2; experiment: cell count relative to DMSO; higher = less toxic; settings: 24 h
A549-ACE2 = experiment: drug-induced phospholipidosis relative to tamoxifen; higher = more phospholipidosis
[7] = tested on: A549-ACE2 infected with SARS-CoV-2; experiment: SARS-CoV-2 infection rate relative to DMSO; higher = more infection; settings: 24 h
Vero E6 [8] = experiment: drug sensitivity score (DSS) for viability; higher = more toxic; extreme values may be limits of the assay; settings: 72 h
Calu-3 [9] = experiment: as above; settings: 72 h
Caco-2 [10] = experiment: as above; settings: 72 h
HepG2 [11] = experiment: as above; settings: 72 h
Vero E6 [12] = experiment: relative viability EC50 (midpoint between 100% and the lowest measured viability); higher = less toxic; settings: 72 h
Calu-3 [13] = experiment: as above; settings: 72 h
Caco-2 [14] = experiment: as above; settings: 72 h
HepG2 [15] = experiment: as above; settings: 72 h
U2OS [16] = experiment: cell viability relative to DMSO; higher = less toxic; settings: 72 h
U2OS [17] = experiment: drug sensitivity score (DSS) for viability; higher = more toxic; extreme values may be limits of the assay; settings: 72 h
U2OS [18] = experiment: relative viability EC50 (midpoint between 100% and the lowest measured viability); higher = less toxic; settings: 72 h

CC(=O)N(O)[C@@H]1c2cc(C#N)ccc2OC(C)(C)[C@H]1O
Settings | SARS-CoV-2 infection rate, [7] [%] | cell count, [6] [%] | cell viability, Caco-2 [3] [%] | cell viability, Calu-3 [2] [%] | cell viability, HepG2 [4] [%] | cell viability, Vero E6 [1] [%] | morphology score, [5]
1 nM | – | – | 102 | 103 | 101 | 94.6 | –
10 nM | – | – | 86.8 | 90.8 | 108 | 102 | –
100 nM | – | – | 93.1 | 89.9 | 95.8 | 96.5 | –
0.3 µM | 93 | 105 | – | – | – | – | 0.26
1000 nM | – | – | 104 | 102 | 107 | 102 | –
3 µM | 77 | 107 | – | – | – | – | 0.56
10000 nM | – | – | 99.7 | 95.2 | 105 | 95.6 | –
10 µM | 40 | 119 | – | – | – | – | 0.81
30 µM | 36 | 116 | – | – | – | – | 0.82

drug-induced phospholipidosis [%], A549-ACE2
Settings | 0.3 µM | 0.833333 µM | 3.33333 µM | 6.66667 µM | 10 µM | 30 µM
24 h | 5.83 | -1.4 | -3.17 | 0.06 | -1.41 | 3.58
48 h | 5.86 | -0.55 | -0.21 | -2.36 | -0.04 | 3.92
72 h | 1.36 | -4.06 | -1.89 | -2.87 | 0.112 | 6.24

Settings | drug sensitivity score | relative viability EC50 [µM]
Caco-2 [10] | 0 | –
Caco-2 [14] | – | > 10
Calu-3 [9] | 0 | –
Calu-3 [13] | – | > 10
HepG2 [11] | 0 | –
HepG2 [15] | – | > 10
Vero E6 [8] | 0 | –
Vero E6 [12] | – | > 10

CC(C)(C)Cn1c(N)nc2ccc(-c3[nH]c(C(C)(C)C)nc3-c3ccc(F)cc3)nc21
Settings | SARS-CoV-2 infection rate, [7] [%] | cell count, [6] [%] | cell viability, Caco-2 [3] [%] | cell viability, Calu-3 [2] [%] | cell viability, HepG2 [4] [%] | cell viability, U2OS [16] [%] | cell viability, Vero E6 [1] [%] | morphology score, [5]
1 nM | – | – | 102 | 107 | 97 | 99 | 93.2 | –
10 nM | – | – | 98.1 | 94.6 | 92.8 | 98.4 | 94.5 | –
100 nM | – | – | 89.6 | 85.5 | 100 | 95.2 | 83.6 | –
0.3 µM | 118 | 87 | – | – | – | – | – | -0.39
1000 nM | – | – | 86.6 | 75.3 | 94.9 | 91.7 | 72.4 | –
3 µM | 8 | 129 | – | – | – | – | – | 0.95
10000 nM | – | – | 68 | 54.1 | 85.3 | 77.4 | 58.7 | –
10 µM | 4 | 124 | – | – | – | – | – | 0.96
30 µM | 8 | 100 | – | – | – | – | – | 0.66

drug-induced phospholipidosis [%], A549-ACE2
Settings | 0.3 µM | 0.833333 µM | 3.33333 µM | 6.66667 µM | 10 µM | 30 µM
24 h | -0.05 | -0.99 | 3.52 | 13.5 | 24.9 | 60.6
48 h | 1.57 | 1.82 | 5.06 | 15.9 | 25.2 | 57.1
72 h | 2.63 | 3.92 | 4.98 | 13.2 | 27 | –

Settings | drug sensitivity score | relative viability EC50 [µM]
Caco-2 [10] | 2.9 | –
Calu-3 [9] | 6.1 | –
HepG2 [11] | 0.6 | –
HepG2 [15] | – | > 10
U2OS [17] | 1.2 | –
U2OS [18] | – | > 10
Vero E6 [8] | 6.7 | –

O=C(c1ccc(/C=C/c2n[nH]c3ccccc23)cc1)N1CCNCC1 [KW-2449]
Settings | SARS-CoV-2 infection rate, [7] [%] | cell count, [6] [%] | cell viability, Caco-2 [3] [%] | cell viability, HepG2 [4] [%] | cell viability, U2OS [16] [%] | cell viability, Vero E6 [1] [%] | morphology score, [5]
1 nM | – | – | 98.7 | 102 | 103 | 103 | –
10 nM | – | – | 98.6 | 108 | 102 | 104 | –
100 nM | – | – | 97.2 | 98.6 | 101 | 99.3 | –
0.3 µM | 98 | 105 | – | – | – | – | 0.33
1000 nM | – | – | 99 | 94.6 | 100 | 101 | –
3 µM | 79 | 59 | – | – | – | – | 0.51
10000 nM | – | – | 108 | 69.6 | 63.1 | 95.3 | –
10 µM | 26 | 39 | – | – | – | – | 0.62
30 µM | 40 | 1 | – | – | – | – | 0.12

drug-induced phospholipidosis [%], A549-ACE2
Settings | 0.3 µM | 0.833333 µM | 3.33333 µM | 6.66667 µM | 10 µM
24 h | -0.51 | -0.69 | 3.6 | 13.3 | 8.57
48 h | -1.26 | -3.23 | 0.95 | 9.27 | 0.37
72 h | -0.724 | -3.37 | – | – | –

Settings | drug sensitivity score | relative viability EC50 [µM]
Caco-2 [10] | 0 | –
Caco-2 [14] | – | > 10
HepG2 [11] | 2.2 | –
U2OS [17] | 1.7 | –
Vero E6 [8] | 0 | –
Vero E6 [12] | – | > 10

CC(C)C[C@H](NC(=O)CNC(=O)c1cc(Cl)ccc1Cl)B1OC(=O)C(CC(=O)O)(CC(=O)O)O1 [MLN9708]
Settings | SARS-CoV-2 infection rate, [7] [%] | cell count, [6] [%] | cell viability, Caco-2 [3] [%] | cell viability, Calu-3 [2] [%] | cell viability, HepG2 [4] [%] | cell viability, U2OS [16] [%] | cell viability, Vero E6 [1] [%] | morphology score, [5]
1 nM | – | – | 99.6 | 95.1 | 89.6 | 101 | 97 | –
10 nM | – | – | 94.6 | 95.1 | 104 | 95.8 | 99.5 | –
100 nM | – | – | 11.4 | 19.6 | 65 | 43.2 | 44.1 | –
0.1 µM | 88 | 88 | – | – | – | – | – | 0.35
0.3 µM | 83 | 78 | – | – | – | – | – | 0.28
1000 nM | – | – | 5.1 | 6.6 | 4.3 | 0.5 | 10.5 | –
1 µM | 48 | 65 | – | – | – | – | – | 0.27
3 µM | 33 | 57 | – | – | – | – | – | 0.28
10000 nM | – | – | 5 | 5.2 | 0.5 | 0 | 4.8 | –

A549-ACE2, 24 h
Settings | drug-induced phospholipidosis [%]
0.3 µM | 4.58
0.833333 µM | -2.83

Settings | drug sensitivity score | relative viability EC50 [µM]
Caco-2 [10] | 28.8 | –
Calu-3 [9] | 27.3 | –
HepG2 [11] | 22.1 | –
HepG2 [15] | – | 0.139
U2OS [17] | 24.7 | –
Vero E6 [8] | 23.8 | –
